Columns and labels:
mSLC1A5 = target: T1, mSLC1A5 (Mus musculus, UniProt P51912); test: TEVC block of anion leak conductance in oocytes; assay type: cell-based; settings: SLC1A5; compared with ligands of refs 43, 65
T1 construct: expressed in transfected cells; host or cells: Xenopus laevis oocytes (cRNA injection)
T1 sequence (P51912 1-553): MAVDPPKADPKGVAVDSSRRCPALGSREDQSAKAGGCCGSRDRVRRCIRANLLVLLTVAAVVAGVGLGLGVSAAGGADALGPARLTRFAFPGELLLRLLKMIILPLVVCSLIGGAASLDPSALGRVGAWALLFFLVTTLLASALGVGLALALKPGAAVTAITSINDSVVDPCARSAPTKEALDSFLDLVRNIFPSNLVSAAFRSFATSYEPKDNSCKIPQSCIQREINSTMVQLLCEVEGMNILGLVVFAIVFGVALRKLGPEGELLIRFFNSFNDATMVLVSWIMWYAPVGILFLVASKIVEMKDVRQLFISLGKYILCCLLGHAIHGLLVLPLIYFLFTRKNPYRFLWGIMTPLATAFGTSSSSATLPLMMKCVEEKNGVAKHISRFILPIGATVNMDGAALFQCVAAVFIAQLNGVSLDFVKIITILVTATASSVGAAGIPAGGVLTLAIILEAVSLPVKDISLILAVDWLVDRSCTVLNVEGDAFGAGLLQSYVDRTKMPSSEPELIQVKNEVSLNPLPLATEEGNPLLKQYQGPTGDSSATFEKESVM
Excerpt: (§1) The currents induced by substrates and blocked by hydroxyproline analogs shared a reversal potential shown in the current/voltage relationship consistent with the conductance originating from the same ion pore (Figure 3, inset). […] The observed dose–response relationships are independent of competing substrates, and thus provide a direct measure of the equilibrium inhibition constant (Ki). Each synthetic hydroxyproline analog was functionally assessed for its capacity to inhibit SLC1A4 and SLC1A5 leak currents with affinities reported in Table 1 as determined or approximated Ki.
(§2) Two-electrode voltage clamp (TEVC) transporter currents were recorded with a GeneClamp 500 amplifier and Digidata 1320A analog–digital interface (Molecular Devices, San Jose, CA, USA). Electrodes (0.2–1.0 MΩ) were filled with 3M KCl and the recording chamber was grounded with an agar bridge. Data were acquired with Axograph (v1.7.6) and LabChart (v7) and analyzed with Kaleidagraph software (v4.1) (Synergy, Reading, PA, USA). Uncoupled anion currents associated with the transport of substrate and block of SLC1A4 or SLC1A5 mediated leak conductance were recorded in the presence of Ringer with 50% substitution of NaCl by NaSCN to amplify the non-transported anion conductance.
(§3) Figure 3 AHPCs block a leak current in SLC1A4 and SLC1A5. […] Inset (A): The current and voltage relationship for SLC1A4 currents activated by Ala or blocked by 14b are determined by subtracting voltage jumps in buffer.

SLC1A4 = target: T2, SLC1A4 (Homo sapiens, UniProt P43007); test: TEVC block of anion leak conductance in oocytes; assay type: cell-based; settings: SLC1A4; compared with ligands of refs 43, 65
T2 construct: expressed in transfected cells; host or cells: Xenopus laevis oocytes (cRNA injection)
T2 sequence (P43007 1-532): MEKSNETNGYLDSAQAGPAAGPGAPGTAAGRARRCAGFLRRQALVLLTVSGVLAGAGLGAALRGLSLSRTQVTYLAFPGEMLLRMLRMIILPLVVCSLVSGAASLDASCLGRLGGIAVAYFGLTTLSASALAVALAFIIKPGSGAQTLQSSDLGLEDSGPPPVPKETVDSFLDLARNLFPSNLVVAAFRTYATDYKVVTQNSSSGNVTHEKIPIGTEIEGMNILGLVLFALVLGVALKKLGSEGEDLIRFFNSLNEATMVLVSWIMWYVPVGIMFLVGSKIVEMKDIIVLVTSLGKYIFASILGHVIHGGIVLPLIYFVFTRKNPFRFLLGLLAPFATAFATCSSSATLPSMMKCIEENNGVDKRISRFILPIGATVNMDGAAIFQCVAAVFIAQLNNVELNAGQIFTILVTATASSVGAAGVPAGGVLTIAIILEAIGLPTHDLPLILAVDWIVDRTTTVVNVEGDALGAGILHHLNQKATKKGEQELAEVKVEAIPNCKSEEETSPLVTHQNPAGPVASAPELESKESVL
Excerpt: as §1, §2, §3

- fold improvement in affinity over ligands previously reported (mSLC1A5): 7–25 fold
- fold improvement in affinity over ligands previously reported (SLC1A4): 7–25 fold
SMILES: O=C(O)[C@H]1NC[C@@H](OCc2ccc(-c3ccccc3)cc2)[C@@H]1O [14e]
